What was measured:
MAGL [1] = biological target: T1, MAGL (Homo sapiens, UniProt Q99685); assay: In vitro competitive substrate hydrolysis enzyme activity assay (pNPA), HEK293 cell lysates; format: biochemical; set-up: expressed in transfected cells; host or cells: HEK293; conditions: HEK293 lysate
T1 sequence (Q99685 1-303): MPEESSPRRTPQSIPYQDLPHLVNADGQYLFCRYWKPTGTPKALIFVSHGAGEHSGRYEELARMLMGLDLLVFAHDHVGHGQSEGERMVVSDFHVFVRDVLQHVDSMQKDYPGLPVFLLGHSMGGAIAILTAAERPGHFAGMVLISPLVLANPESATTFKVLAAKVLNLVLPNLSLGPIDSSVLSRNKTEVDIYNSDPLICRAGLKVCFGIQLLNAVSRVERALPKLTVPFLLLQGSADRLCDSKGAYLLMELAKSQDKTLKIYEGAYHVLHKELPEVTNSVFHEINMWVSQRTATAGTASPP
Protocol: HEK293 cell lysates expressing recombinant human MAGL enzyme and 4-nitrophenyl acetate (pNPA) substrate were diluted separately in 50 mM HEPES (pH 7.0) containing 200 mM KCl and 1 mM EDTA. Lysates (50 μL, ˜1.2 μg total protein) were preincubated with varying concentrations of inhibitors at 25° C. After 30 min, 2×pNPA substrate (50 μL, 2.5 mM) was added and the rate of substrate turnover was monitored by measuring the increase in absorbance at wavelength 405 nm for 20 minutes at 25° C. using a Biotek Neo2 plate reader. The mean velocity was converted to percent enzyme activity following background subtraction and normalization to DMSO controls. IC50 values were determined by fitting percent enzyme activities to a non-linear regression, 4-parameter, sigmoidal dose response function in Prism GraphPad.

MAGL [2] = biological target: T1, MAGL; assay: In vitro competitive activity-based protein profiling, PC3 human cell membrane proteomes; format: biochemical; set-up: endogenous in cells; host or cells: PC3 human cells (membrane proteome); conditions: human PC3 membrane proteome; for inhibition at 1 µM: read-out: MAGL % inh. 1 μM (human PC3)
Protocol: PC3 human cell membrane proteomes (50 μL, 2.0 mg/mL total protein concentration) were preincubated with varying concentrations of inhibitors at 37° C. After 30 min, the ABPP probe JW912-Bodipy (1.0 μL, 50 μM in DMSO) was added and the mixture was incubated for 30 min at room temperature. Reactions were quenched with SDS loading buffer (15 μL-4×) and run on SDS-PAGE. Following gel imaging, serine hydrolase activity was determined by measuring fluorescent intensity of gel bands corresponding to MAGL using ImageJ 1.43u software. Intensities were converted to percent enzyme activity by normalizing to DMSO controls. IC50 values were determined by fitting percent enzyme activities to a non-linear regression, 4-parameter, sigmoidal dose response function in Prism GraphPad.

| IC50 (MAGL [1]) [µM] | inhibition at 1 µM (MAGL [2]) [%] | IC50 (MAGL [2]) [µM] | SMILES |
| --- | --- | --- | --- |
| 0.0136 |  |  | Cc1ncccc1NC(=O)C1CC12CCN(C(=O)OC(C(F)(F)F)C(F)(F)F)CC2 (single isomer, unassigned) [Example 69, 1,1,1,3,3,3-hexafluoropropan-2-yl (R or S)-1-((2-methylpyridin-3-yl)carbamoyl)-6-azaspiro[2.5]octane-6-carboxylate] |
| 0.553 | 100 | 0.18 | O=C(Nc1cccnn1)[C@@H]1CC12CCN(C(=O)OC(C(F)(F)F)C(F)(F)F)CC2 [Example 5, 1,1,1,3,3,3-Hexafluoropropan-2-yl (R)-1-(pyridazin-3-ylcarbamoyl)-6-azaspiro[2.5]octane-6-carboxylate] |
| 0.435 | 100 | 0.127 | O=C(Nc1cccnc1)[C@@H]1CC12CCN(C(=O)OC(C(F)(F)F)C(F)(F)F)CC2 (single isomer, unassigned) [Example 3] |
| 0.0718 |  | 0.0325 | O=C(NCc1cccnc1)C1CC12CCN(C(=O)OC(C(F)(F)F)C(F)(F)F)CC2 (single isomer, unassigned) [Example 88, 1,1,1,3,3,3-hexafluoropropan-2-yl (R or S)-1-((pyridin-3-ylmethyl)carbamoyl)-6-azaspiro[2.5]octane-6-carboxylate] |
| 0.118 |  |  | Cc1ccc(NC(=O)C2CC23CCN(C(=O)OC(C(F)(F)F)C(F)(F)F)CC3)cn1 (single isomer, unassigned) [Example 82, 1,1,1,3,3,3-hexafluoropropan-2-yl (R or S)-1-((6-methylpyridin-3-yl)carbamoyl)-6-azaspiro[2.5]octane-6-carboxylate] |
| 0.028 |  |  | O=C(Nc1cnccn1)C1CC12CCN(C(=O)OC(C(F)(F)F)C(F)(F)F)CC2 (single isomer, unassigned) [Example 55, 1,1,1,3,3,3-hexafluoropropan-2-yl (R or S)-1-(pyrazin-2-ylcarbamoyl)-6-azaspiro[2.5]octane-6-carboxylate] |
| 0.003 |  |  | O=C(Nc1ccccn1)C1CC12CCN(C(=O)OC(C(F)(F)F)C(F)(F)F)CC2 (single isomer, unassigned) [Example 49, 1,1,1,3,3,3-hexafluoropropan-2-yl (R or S)-1-(pyridin-2-ylcarbamoyl)-6-azaspiro[2.5]octane-6-carboxylate] |
| 0.985 |  |  | Cc1ncccc1NC(=O)C1CC12CCN(C(=O)OC(C(F)(F)F)C(F)(F)F)CC2 (single isomer, unassigned) [Example 70, 1,1,1,3,3,3-hexafluoropropan-2-yl (R or S)-1-((2-methylpyridin-3-yl)carbamoyl)-6-azaspiro[2.5]octane-6-carboxylate] |
|  |  | 0.29 | O=C(Nc1ccon1)C1CC12CCN(C(=O)OC(C(F)(F)F)C(F)(F)F)CC2 (single isomer, unassigned) [Example 177, 1,1,1,3,3,3-hexafluoropropan-2-yl (R or S)-1-(isoxazol-3-ylcarbamoyl)-6-azaspiro[2.5]octane-6-carboxylate] |
|  |  | 0.1 | Cc1ccc(NC(=O)[C@@H]2CC23CCN(C(=O)OC(C(F)(F)F)C(F)(F)F)CC3)nn1 (single isomer, unassigned) [Example 105] |

More lines, now with the values behind:

| SMILES | IC50 (MAGL [1]) [µM] | inhibition at 1 µM (MAGL [2]) [%] | IC50 (MAGL [2]) [µM] |
| --- | --- | --- | --- |
| O=C(Nc1cccc(C(F)(F)F)n1)C1CC12CCN(C(=O)OC(C(F)(F)F)C(F)(F)F)CC2 (single isomer, unassigned) [Example 73, 1,1,1,3,3,3-hexafluoropropan-2-yl (R or S)-1-((6-(trifluoromethyl)pyridin-2-yl)carbamoyl)-6-azaspiro[2.5]octane-6-carboxylate] | 0.0003 |  |  |
| CN(C(=O)C1CC12CCN(C(=O)OC(C(F)(F)F)C(F)(F)F)CC2)c1cccnn1 (racemic) [Example 188, 1,1,1,3,3,3-hexafluoropropan-2-yl (+)1-(methyl(pyridazin-3-yl)carbamoyl)-6-azaspiro[2.5]octane-6-carboxylate] | 0.249 | 100 | 0.12 |
| O=C(OC(C(F)(F)F)C(F)(F)F)N1CCC2(CC1)CC2C(=O)N1CCc2cnc(C(F)(F)F)nc2C1 (single isomer, unassigned) [Example 57, 1,1,1,3,3,3-hexafluoropropan-2-yl (R or S)-1-(2-(trifluoromethyl)-5,6,7,8-tetrahydropyrido[3,4-d]pyrimidine-7-carbonyl)-6-azaspiro[2.5]octane-6-carboxylate] | 0.00473 | 100 | 0.0017 |
| CN(C(=O)C1CC12CCN(C(=O)OC(C(F)(F)F)C(F)(F)F)CC2)c1cccnc1 (single isomer, unassigned) [Example 43, 1,1,1,3,3,3-hexafluoropropan-2-yl (R or S)-1-(methyl(pyridin-3-yl)carbamoyl)-6-azaspiro[2.5]octane-6-carboxylate] | 0.244 |  | 0.04 |
| O=C(OC(C(F)(F)F)C(F)(F)F)N1CCC2(CC1)CC2C(=O)N1CCc2nc(C3CC3)ncc2C1 (single isomer, unassigned) [Example 64, 1,1,1,3,3,3-hexafluoropropan-2-yl (R or S)-1-(2-cyclopropyl-5,6,7,8-tetrahydropyrido[4,3-d]pyrimidine-6-carbonyl)-6-azaspiro[2.5]octane-6-carboxylate] | 0.103 |  |  |
| O=C(OC(C(F)(F)F)C(F)(F)F)N1CCC2(CC1)CC2C(=O)N1CCn2cc(C(F)(F)F)nc2C1 (single isomer, unassigned) [Example 52, 1,1,1,3,3,3-hexafluoropropan-2-yl (R or S)-1-(2-(trifluoromethyl)-5,6,7,8-tetrahydroimidazo[1,2-a]pyrazine-7-carbonyl)-6-azaspiro[2.5]octane-6-carboxylate] | 0.155 |  |  |
| O=C(OC(C(F)(F)F)C(F)(F)F)N1CCC2(CC1)CC2C(=O)N1CCc2ncncc2C1 (single isomer, unassigned) [Example 61, 1,1,1,3,3,3-hexafluoropropan-2-yl (R or S)-1-(5,6,7,8-tetrahydropyrido[4,3-d]pyrimidine-6-carbonyl)-6-azaspiro[2.5]octane-6-carboxylate] | 0.684 |  |  |
| O=C(Nc1ccc(C(F)(F)F)nc1)C1CC12CCN(C(=O)OC(C(F)(F)F)C(F)(F)F)CC2 (single isomer, unassigned) [Example 79, 1,1,1,3,3,3-hexafluoropropan-2-yl (R or S)-1-((6-(trifluoromethyl)pyridin-3-yl)carbamoyl)-6-azaspiro[2.5]octane-6-carboxylate] | 0.851 |  |  |
| O=C(Nc1cnc(C(F)(F)F)nc1)C1CC12CCN(C(=O)OC(C(F)(F)F)C(F)(F)F)CC2 (single isomer, unassigned) [Example 100, 1,1,1,3,3,3-hexafluoropropan-2-yl (R or S)-1-((2-(trifluoromethyl)pyrimidin-5-yl)carbamoyl)-6-azaspiro[2.5]octane-6-carboxylate] | 0.736 |  |  |
| CN(C(=O)C1CC12CCN(C(=O)OC(C(F)(F)F)C(F)(F)F)CC2)c1ccccn1 (single isomer, unassigned) [Example 46, 1,1,1,3,3,3-hexafluoropropan-2-yl (R or S)-1-(methyl(pyridin-2-yl)carbamoyl)-6-azaspiro[2.5]octane-6-carboxylate] | 0.133 |  |  |
| O=C(Nc1cncc(Cl)c1)C1CC12CCN(C(=O)OC(C(F)(F)F)C(F)(F)F)CC2 (single isomer, unassigned) [Example 67, 1,1,1,3,3,3-hexafluoropropan-2-yl (R or S)-1-((5-chloropyridin-3-yl)carbamoyl)-6-azaspiro[2.5]octane-6-carboxylate] | 0.0485 |  |  |
